ChEMBL document CHEMBL1770148, “Dual function inhibitors of relevance to chronic obstructive pulmonary disease” (Bioorg Med Chem Lett, 2011)
Calls of active or inactive are those of the source. The calls are words filed in the database; no cut-off is given here.

Key:
[1] = target: T1, Neutrophil elastase (Homo sapiens) (UniProt P08246); experiment: Inhibition of human neutrophil elastase assessed as remaining activity using MeOSuc-AAPV-pNA substrate at 10.5 uM; conditions: TDE = time-dependent effect
T1 sequence (whole entry): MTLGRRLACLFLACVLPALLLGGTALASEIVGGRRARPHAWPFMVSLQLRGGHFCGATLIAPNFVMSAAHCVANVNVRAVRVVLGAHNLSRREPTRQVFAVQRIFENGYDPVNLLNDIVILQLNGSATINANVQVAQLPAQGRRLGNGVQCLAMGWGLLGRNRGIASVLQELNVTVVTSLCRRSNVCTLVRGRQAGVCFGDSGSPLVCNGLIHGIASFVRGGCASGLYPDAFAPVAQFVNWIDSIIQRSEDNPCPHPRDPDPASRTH

Caspase-1 (Homo sapiens) [2] = target: T2, Caspase-1 (Homo sapiens) (UniProt P29466); experiment: Inhibition of caspase 1 by Z-Asp-CH2DCB released from compound using […] substrate after 2 mins in presence of human neutrophil elastase
T2 sequence (whole entry): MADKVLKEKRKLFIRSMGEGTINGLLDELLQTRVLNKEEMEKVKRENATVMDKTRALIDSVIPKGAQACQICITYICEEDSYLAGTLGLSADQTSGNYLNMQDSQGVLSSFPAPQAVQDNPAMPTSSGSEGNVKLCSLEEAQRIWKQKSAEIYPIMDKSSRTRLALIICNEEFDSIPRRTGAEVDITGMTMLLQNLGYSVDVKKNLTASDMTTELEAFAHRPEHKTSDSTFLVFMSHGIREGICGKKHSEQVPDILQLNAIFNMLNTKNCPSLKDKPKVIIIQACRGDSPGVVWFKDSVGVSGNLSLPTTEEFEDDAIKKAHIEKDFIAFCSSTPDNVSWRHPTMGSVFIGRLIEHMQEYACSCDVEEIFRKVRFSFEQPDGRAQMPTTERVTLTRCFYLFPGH

Caspase-1 (Homo sapiens) [3] = target: T2, Caspase-1 (Homo sapiens); experiment: Inhibition of caspase 1 using […] substrate
[4] = target: T3, Myeloblastin (Homo sapiens) (UniProt P24158); experiment: Inhibition of proteinase 3 after 30 mins
T3 sequence (whole entry): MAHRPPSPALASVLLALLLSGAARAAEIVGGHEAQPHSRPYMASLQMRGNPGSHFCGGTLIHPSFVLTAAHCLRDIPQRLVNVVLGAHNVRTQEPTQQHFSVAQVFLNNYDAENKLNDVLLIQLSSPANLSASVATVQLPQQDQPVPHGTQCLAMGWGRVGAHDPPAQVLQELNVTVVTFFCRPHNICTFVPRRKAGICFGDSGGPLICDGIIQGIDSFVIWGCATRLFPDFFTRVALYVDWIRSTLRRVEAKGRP

inhibition [1]: tde | inhibition (Caspase-1 (Homo sapiens) [2]): Active | inhibition (Caspase-1 (Homo sapiens) [3]): inactive | inhibition [4]: inactive
SMILES: CCC[C@H]1C(=O)N(COC(=O)C[C@H](NC(=O)OCc2ccccc2)C(=O)COC(=O)c2c(Cl)cccc2Cl)S(=O)(=O)N1C
